The source of these data is publication PMC6770071, “XIAP as a Target of New Small Organic Natural Molecules Inducing Human Cancer Cell Death” (Cancers, 2019).

Converted amounts (≈) assume the structure as drawn.

One test deals with A549 cells. The experiment in a line: MTT cell viability assay, A549 lung cancer cells. In kind it is cell-based. Conditions: Homo sapiens, 24 h. Here is the method:
Human U373 glioma, MCF7 breast cancer, A549 lung cancer and PC-3 prostate cancer cells were grown in Dulbecco’s Modified Eagle Medium (DMEM), supplemented with 10% foetal bovine serum, 2 mM glutamine, 100 U/mL penicillin/streptomycin, at 37 °C in a humidified atmosphere containing 5% CO2 (logarithmic growth phase, routine passages every 3 days). The human breast epithelial cell line MCF10 was cultured in DMEM/F12 Ham’s Mixture supplemented with 5% horse serum, epithelial growth factor 20 ng/mL, insulin 10 μg/mL, hydrocortisone 0.5 mg/mL, cholera toxin 100 ng/mL, and 100 U/mL penicillin/streptomycin. […]
U373, MCF7, A549, PC-3, HUVEC, and MCF10 cell viability was determined by MTT assay using published protocols. MTT absorbance was quantified spectrophotometrically using a Glomax Multi Detection System microplate reader (Promega, Milano, Italy).
Statistical significance of raw data between the groups in each experiment was evaluated using unpaired Student’s t-test (single comparisons) or one-way ANOVA followed by the Newman-Keuls post-test (multiple comparisons). The IC50 and Emax concentration were determined by non-linear regression curve analysis of the concentration-effect responses. […] The results were expressed as means ± standard error of mean (SEM) of the indicated n values.

The subject of the next test is caspase 7. The experiment in a line: Cleaved-caspase 7 western blot in MCF10 cells. Type of test: cell-based, human. The settings on record: MCF10, 6 h; gibbilimbol B/eriopodol A 30 µg/mL, erioquinol 10 µg/mL. The text has this:
Using published protocols, MCF7 and MCF10 cells were homogenised in RIPA lysis buffer, supplemented with a cocktail of protease inhibitors (cOmplete; Roche Diagnostics, Milano, Italy). Equal amounts of proteins were separated by 4–20% SDS-polyacrylamide gel electrophoresis (Criterion TGX Stain-free precast gels and Criterion Cell system; Bio-Rad, Hercules, CA, USA) and transferred onto nitrocellulose membrane using a Bio-Rad Trans-Blot Turbo System. When indicated, the membranes were probed using the rabbit monoclonal anti-cleaved caspase 7 and anti-XIAP (Cell Signaling Technology) primary antibodies. After the incubation with the appropriate horseradish-peroxidase-conjugated secondary antibody (Cell Signaling Technology), bands were visualised using the Clarity Western ECL substrate with a ChemiDoc MP imaging system (Bio-Rad). To monitor for potential artefacts in loading and transfer among samples in different lanes, the blots were routinely treated with the Restore Western Blot Stripping Buffer (ThermoFisher Scientific) and re-probed with the goat anti-Lactate dehydrogenase (LDH)-A (Santa Cruz Biotechnology) and the mouse anti-vinculin primary antibodies. The stain-free gel was used as loading control as well. When appropriated, bands were quantified for densitometry using the Bio-Rad Image Lab software.
Figure S6. Western blot. […]
A general note: A western blot detects proteins with antibodies after separation by electrophoresis.

In turn, `CCCCCC/C=C\CCC1(O)C=CC(=O)C=C1` [Erioquinol, (Z)-4-(dec-3′-enyl)-4-hydroxycyclohexa-2,5-dien-1-one] displayed an IC50 in the test with A549 cells of 2.65 µg/mL (≈ 10.7 µM).
On to `CCCCCC/C=C/CCc1ccc(O)cc1` [Gibbilimbol B, (E)-4-(dec-3′-enyl)phenol], for which the “activation of caspase 7” value in the test with caspase 7 is reported as “activation of caspase 7”.

Broadly, the IC50 is the point on the concentration scale where inhibition reaches its midpoint.
